# In patent US20120122727A1, “IN VITRO METHOD FOR PREDICTING WHETHER A COMPOUND IS GENOTOXIC IN VIVO” (priority 2009, published 2012):
# Tested on: primary mouse hepatocytes
# Test: Gene expression (Affymetrix Mouse Genome 430 2.0) in primary mouse hepatocytes, true vs false GTX, 24 h and 48 h
# Conditions: log2, corrected for vehicle control
smiles,measurement,setting,value
"CC(=O)Nc1ccc2c(c1)Cc1ccccc1-2 [2-AAF, 2-Acetylaminofluorene]",Gene expression data AF000969 (Cadps2),24 h average,−0.5371
same,Gene expression data AF022072 (Grb10),24 h average,0.5527
same,Gene expression data AF065917 (Lif),24 h average,−0.1242
same,Gene expression data AF204959 (Cyp3a25 /// LOC622249),24 h average,0.2152
same,Gene expression data AF297615 (Ggta1),24 h average,0.03187
same,Gene expression data AI594683 (Dmn),24 h average,−0.2452
same,Gene expression data AI596632 (Ptprg /// LOC632664),24 h average,−0.0981
same,Gene expression data AI987929 (Ndrg1),24 h average,0.8432
same,Gene expression data AK004419 (Fbxl17),24 h average,−0.168
same,Gene expression data AK005731 (1700007K13Rik),24 h average,0.08277
same,Gene expression data AK007766 (1810044A24Rik),24 h average,0.01003
same,Gene expression data AK007854 (1810053B23Rik),24 h average,−0.9008
same,Gene expression data AK009736 (Gpr137b /// LOC664862 /// LOC673335),24 h average,−0.00723
same,Gene expression data AK010447 (Smyd3),24 h average,−0.1751
same,Gene expression data AK014608 (4632434l11Rik),24 h average,−0.09823
same,Gene expression data AK019979 (2610528E23Rik),24 h average,0.3248
same,Gene expression data AV095209 (Mthfd1l),24 h average,0.4403
same,Gene expression data AV141095 (1110033M05Rik),24 h average,−0.2881
same,Gene expression data AV173571 (1700106N22Rik),24 h average,−0.04133
same,Gene expression data AV219418 (Ldhb),24 h average,−0.3695
same,Gene expression data AV223474 (Zdhhc14),24 h average,−0.4459
same,Gene expression data AV298304 (Homez),24 h average,−0.1831
same,Gene expression data AV327248 (Zfp365 /// LOC674611),24 h average,0.0668
same,Gene expression data AV377066 (9130221J18Rik),24 h average,−0.6586
same,Gene expression data AW240761 (Tbc1d5),24 h average,−0.0924
same,Gene expression data AW543460 (Pard3),24 h average,−0.3156
same,Gene expression data AW543723,24 h average,0.1065
same,Gene expression data AW986246 (Maoa),24 h average,0.01853
same,Gene expression data BB027848 (4732466D17Rik),24 h average,−0.252
same,Gene expression data BB043558 (9230114K14Rik),24 h average,−0.1205
same,Gene expression data BB275142 (AW456874),24 h average,−0.02303
same,Gene expression data BB308836 (Ppm1l),24 h average,−0.1499
same,Gene expression data BB318221 (Zdhhc14),24 h average,−0.411
same,Gene expression data BB463610 (4632434l11Rik),24 h average,−0.3778
same,Gene expression data BB526605 (Mipol1),24 h average,0.3466
same,Gene expression data BB770528 (Rai2),24 h average,−0.5052
same,Gene expression data BB821363 (Scfd2),24 h average,−0.1216
same,Gene expression data BC004827 (Psat1),24 h average,0.2797
same,Gene expression data BC008626 (Icam1),24 h average,−0.6353
same,Gene expression data BC010462 (BC010462),24 h average,−0.1475
same,Gene expression data BC012247 (Dcxr),24 h average,−0.08253
same,Gene expression data BC012260 (Psmf1),24 h average,−0.646
same,Gene expression data BC015270 (Hist2h3c2),24 h average,−0.1327
same,Gene expression data BC016073 (Cdkal1),24 h average,−0.1464
same,Gene expression data BC016265 (Ube2e2),24 h average,−0.3984
same,Gene expression data BC019882 (Acaa1b),24 h average,1.3218
same,Gene expression data BC025501 (Aaas),24 h average,−0.1475
same,Gene expression data BC025837 (Sbk1),24 h average,−0.2976
same,Gene expression data BC025915 (Cova1),24 h average,−0.1568
same,Gene expression data BC026422 (Tgm1),24 h average,−0.1664
same,Gene expression data BF719766 (Thyn1),24 h average,−0.0442
same,Gene expression data BG065754 (Ccng1),24 h average,0.0569
same,Gene expression data BG066903 (Kif16b),24 h average,−0.2125
same,Gene expression data BG069873 (Gnb1l),24 h average,−0.2747
same,Gene expression data BG070887 (Gtdc1),24 h average,−0.01607
same,Gene expression data BG076151 (Ppm1d),24 h average,−0.1219
same,Gene expression data BG261907 (Large),24 h average,−0.2502
same,Gene expression data BI651416 (Cdc42bpg),24 h average,0.1552
same,Gene expression data BI660702 (Ell3),24 h average,0.1219
same,Gene expression data BM198879 (Ercc5),24 h average,−0.2382
same,Gene expression data BM230508 (A030007D23Rik),24 h average,0.282
same,Gene expression data NM_007987 (Fas),24 h average,0.06923
same,Gene expression data NM_008522 (Ltf),24 h average,0.1277
same,Gene expression data NM_008576 (Abcc1),24 h average,0.3321
same,Gene expression data NM_011176 (St14),24 h average,−0.03387
same,Gene expression data NM_011316 (Saa4),24 h average,−0.3157
same,Gene expression data NM_012006 (Acot1),24 h average,1.9403
same,Gene expression data NM_013866 (Zfp385),24 h average,−0.136
same,Gene expression data NM_018770 (Igsf4a),24 h average,−0.2065
same,Gene expression data NM_021451 (Pmaip1),24 h average,−0.7054
same,Gene expression data NM_025770 (Atg10),24 h average,0.01663
same,Gene expression data NM_028803 (Gbe1),24 h average,−0.2716
same,Gene expression data NM_030697 (Ankrd47),24 h average,−0.252
same,Gene expression data NM_053168 (Trim11),24 h average,−0.2676
same,Gene expression data NM_134188 (Acot2),24 h average,0.597
same,Gene expression data Y15910 (Diap2),24 h average,−0.366
same,Gene expression AA561726 average,48 h,−0.7419
same,Gene expression AF000969 average,48 h,−0.8319
same,Gene expression AF022072 average,48 h,0.0482
same,Gene expression AF033112 average,48 h,−0.03947
same,Gene expression AF055573 average,48 h,−0.2895
same,Gene expression AF069954 average,48 h,0.3518
same,Gene expression AF297615 average,48 h,−0.6791
same,Gene expression AF335325 average,48 h,−0.3088
same,Gene expression AI594683 average,48 h,−0.05213
same,Gene expression AI747296 average,48 h,−0.5003
same,Gene expression AK005731 average,48 h,0.01113
same,Gene expression AK007854 average,48 h,1.4303
same,Gene expression AK010447 average,48 h,−0.3256
same,Gene expression AK010738 average,48 h,0.1851
same,Gene expression AK014608 average,48 h,−0.01987
same,Gene expression AK017734 average,48 h,0.0451
same,Gene expression AK018383 average,48 h,0.2303
same,Gene expression AK019979 average,48 h,−0.5099
same,Gene expression AV095209 average,48 h,−0.3718
same,Gene expression AV141095 average,48 h,−0.5829
same,Gene expression AV173869 average,48 h,−0.3782
same,Gene expression AV216768 average,48 h,−0.6814
same,Gene expression AV219418 average,48 h,0.7839
same,Gene expression AV221299 average,48 h,0.6759
same,Gene expression AV246296 average,48 h,−0.54
same,Gene expression AV251625 average,48 h,0.07103
same,Gene expression AV254764 average,48 h,−0.006467
same,Gene expression AV327248 average,48 h,−0.09177
same,Gene expression BB009155 average,48 h,−0.5851
same,Gene expression BB027848 average,48 h,0.5378
same,Gene expression BB043558 average,48 h,0.196
same,Gene expression BB046347 average,48 h,0.2178
same,Gene expression BB140436 average,48 h,0.4693
same,Gene expression BB204486 average,48 h,−0.6445
same,Gene expression BB223872 average,48 h,0.3216
same,Gene expression BB246912 average,48 h,−0.2264
same,Gene expression BB275142 average,48 h,0.1102
same,Gene expression BB458460 average,48 h,−0.3368
same,Gene expression BB463610 average,48 h,0.0872
same,Gene expression BB730977 average,48 h,−0.9937
same,Gene expression BB743970 average,48 h,0.7664
same,Gene expression BB770528 average,48 h,−0.5594
same,Gene expression BB781615 average,48 h,−0.1164
same,Gene expression BC003284 average,48 h,0.02563
same,Gene expression BC004827 average,48 h,−0.2015
same,Gene expression BC005552 average,48 h,−0.126
same,Gene expression BC006713 average,48 h,0.4411
same,Gene expression BC010318 average,48 h,−0.02213
same,Gene expression BC012247 average,48 h,0.6286
same,Gene expression BC012955 average,48 h,0.05073
same,Gene expression BC013893 average,48 h,0.4936
same,Gene expression BC017615 average,48 h,−0.5229
same,Gene expression BC019379 average,48 h,−1.215
same,Gene expression BC019882 average,48 h,1.577
same,Gene expression BC021352 average,48 h,−1.127
same,Gene expression BC022148 average,48 h,0.456
same,Gene expression BC025169 average,48 h,−0.2222
same,Gene expression BC026131 average,48 h,−0.3489
same,Gene expression BC027026 average,48 h,0.8063
same,Gene expression BC027121 average,48 h,−0.1341
same,Gene expression BC027185 average,48 h,0.4588
same,Gene expression BE956581 average,48 h,0.1808
same,Gene expression BF719766 average,48 h,0.2652
same,Gene expression BG065754 average,48 h,0.3738
same,Gene expression BG066491 average,48 h,−1.541
same,Gene expression BG076151 average,48 h,−0.3358
same,Gene expression BG076333 average,48 h,−0.1306
same,Gene expression BG797099 average,48 h,−0.06173
same,Gene expression BG967046 average,48 h,0.0391
same,Gene expression BI651416 average,48 h,0.3502
same,Gene expression BI966443 average,48 h,0.1201
same,Gene expression BM198879 average,48 h,−0.2887
same,Gene expression BM200015 average,48 h,0.5127
same,Gene expression BM230508 average,48 h,0.0745
same,Gene expression BM936480 average,48 h,0.9169
same,Gene expression BQ174991 average,48 h,−0.3426
same,Gene expression L21027 average,48 h,−0.729
same,Gene expression NM_007556 average,48 h,0.02703
same,Gene expression NM_007980 average,48 h,1.503
same,Gene expression NM_007987 average,48 h,0.516
same,Gene expression NM_008522 average,48 h,0.1967
same,Gene expression NM_008935 average,48 h,0.02783
same,Gene expression NM_009897 average,48 h,−0.003733
same,Gene expression NM_011075 average,48 h,−0.5522
same,Gene expression NM_011176 average,48 h,−0.2632
same,Gene expression NM_011316 average,48 h,0.4369
same,Gene expression NM_012006 average,48 h,2.771
same,Gene expression NM_013642 average,48 h,−0.6535
same,Gene expression NM_013738 average,48 h,−0.2396
same,Gene expression NM_013929 average,48 h,−0.04163
same,Gene expression NM_018881 average,48 h,0.9061
same,Gene expression NM_019738 average,48 h,−0.193
same,Gene expression NM_030697 average,48 h,−0.4783
same,Gene expression NM_053122 average,48 h,−0.106
same,Gene expression NM_134147 average,48 h,0.04213
same,Gene expression NM_134188 average,48 h,0.9088
same,Gene expression X62701 average,48 h,−0.356
